Measurements as given in patent publication US20020032330A1, “Propionic acid derivatives” (priority 1996, published 2002).

Legend:
KKA^y mouse = assay: Hypoglycemic and hypolipidemic effect in KKA^y mouse (oral, once a day for three days); assay type: in vivo; conditions: KKA^y mice, blood 18 hours after final administration
Method: The hypoglycemic effect and hypolipidemic effect were examined using KKA^y mouse which was known as insulin-independent diabetic animal. A group of KKA^y mice (9 to 11 week age) were divided into several groups based on plasma glucose concentration. Each group included mice having an equal plasma glucose concentration. To the mouse was orally administered a compound of the invention in the form of suspension in a 1% methylcellulose solution. The administration was performed once a day and for a period of three days. To the control (mouse having been administered no hypoglycemic agent) was orally administered a 1% methylcellulose solution in the same manner.
After 18 hours from the final administration, blood was collected, and the plasma glucose concentration and the triglyceride concentration were measured. The measurements were performed using commercially available measuring kits (Glucose CII-TestWako and Triglyceride G-TestWako, respectively, both available from Wako Chemicals Co., Ltd.).
The plasma glucose concentration and the triglyceride concentration were examined for each of the divided mouse groups, and their ratio (%) per the corresponding values obtained in the control was calculated.
The same tests were also performed using the comparison compounds, that is, troglitazone and pioglitazone hydrochloride, which were known as pharmaceuticals for treating diabetes.

Question: Which “Plasma glucose concentration (% per control)” value (KKA^y mouse; dosage 100 mg/kg) does the source give for `O=C(O)C(Cc1cnc2ccc(OCc3ccc(C(F)(F)F)cc3)cc2c1)Sc1ccccc1` (centres unmarked) [Compound 1, 3-[6-[(4-trifluoromethyl)benzyloxy]-3-quinolyl]-2-(phenylthio) propionic acid] here?
Answer: 68 % per control

Question: What about the “Triglyceride concentration (% per control)” value (KKA^y mouse; dosage 100 mg/kg) of the same compound?
Answer: 60 % per control

Question: With `COCCOC(Cc1cc2cc(OCc3ccc(C(F)(F)F)cc3)ccc2[nH]1)C(=O)O` (centres unmarked) [Compound 2, 2-(2-methoxyethoxy)-3-[5-[(4-trifluoro-methyl)benzyloxy]-2-indolyl]propionic acid] as the compound, how does the “Plasma glucose concentration (% per control)” value (KKA^y mouse; dosage 30 mg/kg) read?
Answer: 53 % per control

Question: What about the “Triglyceride concentration (% per control)” value (KKA^y mouse; dosage 30 mg/kg) of the same compound?
Answer: 17 % per control

Question: What does the source list for `CCOC(Cc1cnc2ccc(OCc3ccc(Cl)cc3)cc2c1)C(=O)O` (centres unmarked) [Compound 3, 3-[6-(4-chlorobenzyloxy)-3-quinolyl]-2-ethoxypropionic acid]?
Answer: Plasma glucose concentration (% per control) (KKA^y mouse; dosage 30 mg/kg): 63 % per control; Triglyceride concentration (% per control) (KKA^y mouse; dosage 30 mg/kg): 66 % per control

Question: Which results are given for `CCOC(Cc1cnc2cc(OCc3ccc(Cl)cc3)ccc2c1)C(=O)O` (centres unmarked) [Compound 4, 3-[7-(4-chlorobenzyloxy)-3-quinolyl]-2-ethoxypropionic acid]?
Answer: Plasma glucose concentration (% per control) (KKA^y mouse; dosage 30 mg/kg): 58 % per control; Triglyceride concentration (% per control) (KKA^y mouse; dosage 30 mg/kg): 61 % per control

Question: Which results are given for `O=C(O)C(Cc1cnc2cc(OCc3ccc(Cl)cc3)ccc2c1)Oc1ccccc1` (centres unmarked) [Compound 5, 3-[7-(4-chlorobenzyloxy)-3-quinolyl]-2-phenoxypropionic acid]?
Answer: Plasma glucose concentration (% per control) (KKA^y mouse; dosage 30 mg/kg): 77 % per control; Triglyceride concentration (% per control) (KKA^y mouse; dosage 30 mg/kg): 81 % per control

Question: With `Cc1oc(-c2ccccc2)nc1CCc1noc2cc(CC(Sc3ccccc3)C(=O)O)ccc12` (centres unmarked) [Compound 6, 2-phenylthio-3-[3-[2-(2-phenyl-5-methyl-4-oxazolyl)ethyl]-1,2-benzisoxazol-6-yl]-propionic acid] as the compound, how does the “Plasma glucose concentration (% per control)” value (KKA^y mouse; dosage 100 mg/kg) read?
Answer: 46 % per control

Question: What about the “Triglyceride concentration (% per control)” value (KKA^y mouse; dosage 100 mg/kg) of the same compound?
Answer: 31 % per control

Question: Which results are given for `CCOC(Cc1ccc2c(CCc3nc(-c4ccccc4)oc3C)noc2c1)C(=O)O` (centres unmarked) [Compound 7, 2-ethoxy-3-[3-[2-(2-phenyl-5-methyl-4-oxazolyl)ethyl]-1,2-benzisoxazol-6-yl]-propionic acid]?
Answer: Plasma glucose concentration (% per control) (KKA^y mouse; dosage 1 mg/kg): 76 % per control; Triglyceride concentration (% per control) (KKA^y mouse; dosage 1 mg/kg): 87 % per control; Plasma glucose concentration (% per control) (KKA^y mouse; dosage 3 mg/kg): 61 % per control; Triglyceride concentration (% per control) (KKA^y mouse; dosage 3 mg/kg): 65 % per control; Plasma glucose concentration (% per control) (KKA^y mouse; dosage 10 mg/kg): 60 % per control; Triglyceride concentration (% per control) (KKA^y mouse; dosage 10 mg/kg): 45 % per control

Question: With `CCCSC(Cc1cnc2cc(OCc3ccc(Cl)cc3)ccc2c1)C(=O)O` (centres unmarked) [Example 2, 3-[7-(4-Chlorobenzyloxy)-3-quinolyl]-2-(propylthio) propionic acid] as the compound, how does the melting point read?
Answer: 50 to 60 °C

Question: Which melting point does the source give for `COCCOC(Cc1cnc2cc(OCc3ccc(Cl)cc3)ccc2c1)C(=O)O` (centres unmarked) [Example 6, 3-[7-(4-Chlorobenzyloxy)-3-quinolyl]-2-(2-methoxyethoxy) propionic acid] here?
Answer: 110 to 113 °C

Question: For `COCCOC(Cc1cnc2ccc(OCc3ccc([N+](=O)[O-])cc3)cc2c1)C(=O)O` (centres unmarked) [Example 7, 2-(2-Methoxyethoxy)-3-[6-(4-nitrobenzyloxy)-3-quinolyl]propionic acid], which melting point is on record?
Answer: 146 to 148 °C

Question: What does the source list for `CCc1ccc(CCOc2ccc(CC3SC(=O)NC3=O)cc2)nc1.Cl` (centres unmarked) [Pioglitazone hydrochloride, reference compound]?
Answer: Plasma glucose concentration (% per control) (KKA^y mouse; dosage 30 mg/kg): 68 % per control; Triglyceride concentration (% per control) (KKA^y mouse; dosage 30 mg/kg): 84 % per control; Plasma glucose concentration (% per control) (KKA^y mouse; dosage 100 mg/kg): 65 % per control; Triglyceride concentration (% per control) (KKA^y mouse; dosage 100 mg/kg): 69 % per control

Question: For `Cc1c(C)c2c(c(C)c1O)CCC(C)(COc1ccc(CC3SC(=O)NC3=O)cc1)O2` (centres unmarked) [Troglitazone, reference compound], which “Plasma glucose concentration (% per control)” value (KKA^y mouse; dosage 30 mg/kg) is on record?
Answer: 84 % per control

Question: What about the “Triglyceride concentration (% per control)” value (KKA^y mouse; dosage 30 mg/kg) of the same compound?
Answer: 99 % per control

Question: And the “Plasma glucose concentration (% per control)” value (KKA^y mouse; dosage 100 mg/kg)?
Answer: 68 % per control

Question: What about the “Triglyceride concentration (% per control)” value (KKA^y mouse; dosage 100 mg/kg) of the same compound?
Answer: 101 % per control
